# Experimental data: article PMC11178787, “Development of a natural product optimization strategy for inhibitors against MraY, a promising antibacterial target” (Nature Communications, 2024)
# Like-named read-outs stand apart in the source and are kept apart here.
# Columns and labels:
# Assay in all cases: microbe, parasite or virus in culture
# [1] = system: T1, E. faecalis(VRE) ATCC 51299; parameters: CLSI broth microdilution MIC in MHB-II, single trial; conditions: Enterococcus faecalis, 18 h
# T1 construct: ATCC 51299 (VRE)
# Experimental: (§1) MICs were determined by a microdilution broth method as recommended by the CLSI with MHB-II. For MICs of stable analogues, a 2-fold dilution of each compound was prepared in DMSO at 100-fold of the final concentration. The strains were inoculated with 5 × 10^5 cfu/mL in 96-well plates (each 100 μL/well), and 1 μL of DMSO solutions of the samples were added (contained less than 1% DMSO). The plates were incubated at 37 °C for 18 h and then MICs were determined. MICs of stable analogues in Table 1 were the highest value in three trials. MICs in Supplementary Table 1 were determined in one trial.
# E. faecium ATCC 35667 = system: T2, E. faecium ATCC 35667; parameters: CLSI broth microdilution MIC in MHB-II, single trial; conditions: Enterococcus faecium, ATCC35667, 18 h
# T2 construct: ATCC 35667
# Experimental: as §1
# [2] = system: T3, E. faecium(VRE) ATCC 51559; parameters: CLSI broth microdilution MIC in MHB-II, single trial; conditions: Enterococcus faecium, 18 h
# T3 construct: ATCC 51559 (VRE)
# Experimental: as §1
# [3] = system: T4, E. faecium(VRE) ATCC 51858; parameters: CLSI broth microdilution MIC in MHB-II, single trial; conditions: Enterococcus faecium, 18 h
# T4 construct: ATCC 51858 (VRE)
# Experimental: as §1
# S. aureus ATCC 29213 = system: T5, S. aureus ATCC 29213; parameters: CLSI broth microdilution MIC in MHB-II, single trial; conditions: Staphylococcus aureus, ATCC29213, 18 h
# T5 construct: ATCC 29213
# Experimental: as §1
# [4] = system: T6, Staphylococcus aureus MRSA JE2; parameters: CLSI broth microdilution MIC in MHB-II, single trial; conditions: 18 h
# T6 construct: JE2 (MRSA)
# Experimental: as §1
# Enterococcus faecalis 21 = system: T7, Enterococcus faecalis 21; parameters: CLSI broth microdilution MIC in MHB-II; conditions: Enterococcus faecalis, 21, 18 h, read-out: MIC
# T7 construct: 21
# Experimental: as §1
# Enterococcus faecalis 22 = system: T8, Enterococcus faecalis 22; parameters: CLSI broth microdilution MIC in MHB-II; conditions: Enterococcus faecalis, 22, 18 h, read-out: MIC
# T8 construct: 22
# Experimental: as §1
# Enterococcus faecalis 23 = system: T9, Enterococcus faecalis 23; parameters: CLSI broth microdilution MIC in MHB-II; conditions: Enterococcus faecalis, 23, 18 h, read-out: MIC
# T9 construct: 23
# Experimental: as §1
# Enterococcus faecalis 24 = system: T10, Enterococcus faecalis 24; parameters: CLSI broth microdilution MIC in MHB-II; conditions: Enterococcus faecalis, 24, 18 h, read-out: MIC
# T10 construct: 24
# Experimental: as §1
# Enterococcus faecalis 27 = system: T11, Enterococcus faecalis 27; parameters: CLSI broth microdilution MIC in MHB-II; conditions: Enterococcus faecalis, 27, 18 h, read-out: MIC
# T11 construct: 27
# Experimental: as §1
# Enterococcus faecalis 28 = system: T12, Enterococcus faecalis 28; parameters: CLSI broth microdilution MIC in MHB-II; conditions: Enterococcus faecalis, 28, 18 h, read-out: MIC
# T12 construct: 28
# Experimental: as §1
# Enterococcus faecalis 29 = system: T13, Enterococcus faecalis 29; parameters: CLSI broth microdilution MIC in MHB-II; conditions: Enterococcus faecalis, 29, 18 h, read-out: MIC
# T13 construct: 29
# Experimental: as §1
# Enterococcus faecalis 30 = system: T14, Enterococcus faecalis 30; parameters: CLSI broth microdilution MIC in MHB-II; conditions: Enterococcus faecalis, 30, 18 h, read-out: MIC
# T14 construct: 30
# Experimental: as §1
# Enterococcus faecium 10 = system: T15, Enterococcus faecium 10; parameters: CLSI broth microdilution MIC in MHB-II; conditions: Enterococcus faecium, 10, 18 h, read-out: MIC
# T15 construct: 10
# Experimental: as §1
# Enterococcus faecium 11 = system: T16, Enterococcus faecium 11; parameters: CLSI broth microdilution MIC in MHB-II; conditions: Enterococcus faecium, 11, 18 h, read-out: MIC
# T16 construct: 11
# Experimental: as §1
# Enterococcus faecium 1 = system: Enterococcus faecium 1; parameters: CLSI broth microdilution MIC in MHB-II; conditions: Enterococcus faecium, 1, 18 h, read-out: MIC
# Experimental: as §1
# Enterococcus faecium 3 = system: Enterococcus faecium 3; parameters: CLSI broth microdilution MIC in MHB-II; conditions: Enterococcus faecium, 3, 18 h, read-out: MIC
# Experimental: as §1
# Enterococcus faecium 4 = system: Enterococcus faecium 4; parameters: CLSI broth microdilution MIC in MHB-II; conditions: Enterococcus faecium, 4, 18 h, read-out: MIC
# Experimental: as §1
# Enterococcus faecium 8 = system: Enterococcus faecium 8; parameters: CLSI broth microdilution MIC in MHB-II; conditions: Enterococcus faecium, 8, 18 h, read-out: MIC
# Experimental: as §1
# [5] = system: T17, Staphylococcus aureus #2110; parameters: CLSI broth microdilution MIC in MHB-II; conditions: Staphylococcus aureus, 18 h, read-out: MIC
# T17 construct: #2110
# Experimental: as §1
# [6] = system: T18, Staphylococcus aureus #2931; parameters: CLSI broth microdilution MIC in MHB-II; conditions: Staphylococcus aureus, 18 h, read-out: MIC
# T18 construct: #2931
# Experimental: as §1
# [7] = system: T19, Staphylococcus aureus #2934; parameters: CLSI broth microdilution MIC in MHB-II; conditions: Staphylococcus aureus, 18 h, read-out: MIC
# T19 construct: #2934
# Experimental: as §1
# [8] = system: T20, Staphylococcus aureus #2935; parameters: CLSI broth microdilution MIC in MHB-II; conditions: Staphylococcus aureus, 18 h, read-out: MIC
# T20 construct: #2935
# Experimental: as §1
Compound,MIC (Enterococcus faecalis 21),MIC (Enterococcus faecalis 22),MIC (Enterococcus faecalis 23),MIC (Enterococcus faecalis 24),MIC (Enterococcus faecalis 27),MIC (Enterococcus faecalis 28),MIC (Enterococcus faecalis 29),MIC (Enterococcus faecalis 30),MIC (Enterococcus faecium 10),MIC (Enterococcus faecium 11),MIC (Enterococcus faecium 1),MIC (Enterococcus faecium 3),MIC (Enterococcus faecium 4),MIC (Enterococcus faecium 8),MIC [5],MIC [6],MIC [7],MIC [8],also measured
C[C@H]1COc2c(N3CCN(C)CC3)c(F)cc3c(=O)c(C(=O)O)cn1c23 [levofloxacin],0.5 µg/mL,1 µg/mL,1 µg/mL,1 µg/mL,1 µg/mL,1 µg/mL,0.5 µg/mL,1 µg/mL,> 32 µg/mL,> 32 µg/mL,> 32 µg/mL,> 32 µg/mL,> 32 µg/mL,> 32 µg/mL,> 32 µg/mL,16 µg/mL,> 32 µg/mL,> 32 µg/mL,MIC ([1]; read-out: levofloxacin MIC): 1 µg/mL; MIC (E. faecium ATCC 35667; read-out: levofloxacin MIC): 4 µg/mL; MIC ([2]; read-out: levofloxacin MIC): 16 µg/mL; MIC ([3]; read-out: levofloxacin MIC): 4 µg/mL; MIC (S. aureus ATCC 29213; read-out: levofloxacin MIC): 0.13 µg/mL; MIC ([4]; read-out: levofloxacin MIC): 8 µg/mL
"CCCCCCCCCCCCCCCC(=O)N[C@@H](CCCNC(=N)N)C(=O)Nc1cccc(CN[C@H](C(=O)O)[C@H](O[C@@H]2O[C@H](CN)[C@@H](O)[C@H]2O)[C@H]2O[C@@H](n3ccc(=O)[nH]c3=O)[C@H](O)[C@@H]2O)c1 [compound 8, analogue 8]",1 µg/mL,1 µg/mL,0.25 µg/mL,1 µg/mL,0.5 µg/mL,< 0.06 µg/mL,0.13 µg/mL,0.5 µg/mL,1 µg/mL,2 µg/mL,1 µg/mL,2 µg/mL,1 µg/mL,1 µg/mL,2 µg/mL,1 µg/mL,1 µg/mL,2 µg/mL,MIC ([1]; read-out: 8 MIC): 1 µg/mL; MIC (E. faecium ATCC 35667; read-out: 8 MIC): 0.5 µg/mL; MIC ([2]; read-out: 8 MIC): 1 µg/mL; MIC ([3]; read-out: 8 MIC): 2 µg/mL; MIC (S. aureus ATCC 29213; read-out: 8 MIC): 1 µg/mL; MIC ([4]; read-out: 8 MIC): 2 µg/mL
"CCCCCCCCCCCCCCCC(=O)N[C@@H](CCCCN)C(=O)NCc1cccc(CN[C@H](C(=O)O)[C@H](O[C@@H]2O[C@H](CN)[C@@H](O)[C@H]2O)[C@H]2O[C@@H](n3ccc(=O)[nH]c3=O)[C@H](O)[C@@H]2O)c1 [compound 2, analogue 2]",0.13 µg/mL,0.13 µg/mL,0.25 µg/mL,0.25 µg/mL,0.25 µg/mL,< 0.06 µg/mL,0.13 µg/mL,0.25 µg/mL,1 µg/mL,1 µg/mL,1 µg/mL,1 µg/mL,0.5 µg/mL,0.5 µg/mL,2 µg/mL,0.5 µg/mL,0.5 µg/mL,1 µg/mL,MIC ([1]; read-out: 2 MIC): 0.5 µg/mL; MIC (E. faecium ATCC 35667; read-out: 2 MIC): 0.5 µg/mL; MIC ([2]; read-out: 2 MIC): 0.5 µg/mL; MIC ([3]; read-out: 2 MIC): 2 µg/mL; MIC (S. aureus ATCC 29213; read-out: 2 MIC): 1 µg/mL; MIC ([4]; read-out: 2 MIC): 1 µg/mL
"CCCCCCCCCCCCCCCC(=O)N[C@@H](CCCNC(=N)N)C(=O)NCc1cccc(CN[C@H](C(=O)O)[C@H](O[C@@H]2O[C@H](CN)[C@@H](O)[C@H]2O)[C@H]2O[C@@H](n3ccc(=O)[nH]c3=O)[C@H](O)[C@@H]2O)c1 [compound 4, analogue 4]",0.13 µg/mL,0.13 µg/mL,0.13 µg/mL,0.13 µg/mL,< 0.06 µg/mL,< 0.06 µg/mL,< 0.06 µg/mL,0.25 µg/mL,1 µg/mL,1 µg/mL,1 µg/mL,1 µg/mL,0.5 µg/mL,0.5 µg/mL,4 µg/mL,1 µg/mL,1 µg/mL,2 µg/mL,MIC ([1]; read-out: 4 MIC): 0.25 µg/mL; MIC (E. faecium ATCC 35667; read-out: 4 MIC): 0.5 µg/mL; MIC ([2]; read-out: 4 MIC): 1 µg/mL; MIC ([3]; read-out: 4 MIC): 2 µg/mL; MIC (S. aureus ATCC 29213; read-out: 4 MIC): 1 µg/mL; MIC ([4]; read-out: 4 MIC): 2 µg/mL
